Molecular target: T1, glucocorticoid receptor (Homo sapiens, UniProt P04150)
T1 construct: expressed in transfected cells
T1 sequence (P04150 524-758 limits assumed): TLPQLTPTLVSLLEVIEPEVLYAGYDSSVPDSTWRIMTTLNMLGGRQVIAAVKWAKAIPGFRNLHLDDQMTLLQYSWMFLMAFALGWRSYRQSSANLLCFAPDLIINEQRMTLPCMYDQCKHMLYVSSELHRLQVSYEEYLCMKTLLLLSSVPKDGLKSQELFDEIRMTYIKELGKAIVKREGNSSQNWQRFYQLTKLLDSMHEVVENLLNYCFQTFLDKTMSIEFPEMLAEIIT
Assay: Agonistic mode of action on the glucocorticoid receptor (CHO-Gal4/GR luciferase reporter cell line)
Type: cell-based
Details: range class observed in the agonistic assay or the antagonistic assay (CHO-Gal4/GR reporter cells); table does not say which mode applies per example
Source text: Potential selective glucocorticoid receptor modulators of this intervention can be tested for modulation of the activity of the glucocorticoid receptor using cell-based assays. These assays involve a Chinese hamster ovary (CHO) cell line which contains fragments of the glucocorticoid receptor as well as fusion proteins. The glucocorticoid receptor fragments used are capable of binding the ligand (e.g. beclomethasone) to identify molecules that compete for binding with glucocorticoid receptor ligands. In more detail, the glucocorticoid receptor ligand binding domain is 25 fused to the DNA binding domain (DBD) of the transcriptionfactor GAL4 (GAL4 DBD-GR) and is stably integrated into a CHO cell line containing a GAL4-UAS-Luciferase reporter construct. […] After cell lysis the luminescence that is produced by luciferase after addition of the substrate is detected and EC50 or IC50 values can be calculated. Engagement of molecules which induce gene expression via glucocortocoid receptor binding to the DNA leads to expression of the luciferase gene under the control of the fusion protein GAL4 DBD-GR and therefore to a dose-dependent increase of the luminescence signal. Binding of molecules which repress beclomethasone-induced gene expression of the luciferase gene under the control of the fusion protein GAL4 DBD-GR leads to a dose-dependent reduction of the luminescence signal.
Biological Assays Agonistic Mode of Action on the Glucocorticoid Receptor
The reporter cell line CHO-Gal4/GR consisted of a Chinese hamster ovary (CHO) cell line (Leibniz Institute DSMZ—German Collection of Microorganisms and Cell CuItures GmbH: ACC-110) containing a firefly luciferase gene under the control of the GR ligand binding domain fused to the DNA binding domain (DBD) of GAL4 (GAL4 DBD-GR) stably integrated into CHO cells. This cell line was established by stable transfection of CHO cells with a GAL4-UAS-Luciferase reporter construct. In a subsequent step the ligand binding domain of the GR cloned into pIRES2-EGFP-GAL4 containing the DNA binding domain of GAL4 from pFA-AT2 was transfected. This fusion construct activated firefly luciferase expression under the control of a multimerized GAL4 upstream activation sequence (UAS). The signal of the emitted luminescence was recorded by the FLIPR^TETRA. This allowed for specific detection of ligand-induced activation of the GR and therefore for the identification of compounds with agonistic properties. The GAL4/UAS reporter was premixed with a vector that constitutively expressed Renilla luciferase, which served as an internal positive control for transfection efficiency.
The complete culture medium for the assay was: • DMEM F-12 (1:1) MIXTURE (LONZA cat. N°: BE04-687F/U1) 500 mL • 5 mL of 100 mM Sodium Pyruvate (LONZA cat. N°: BE12-115E) • 25 mL of 7.5% Sodium Bicarbonate (LONZA cat. N° BE17-613E) • 6.5 mL of 1 M Hepes (LONZA cat. N°: BE17-737E) • 5 mL of 100× Penicillin/Streptomycin (LONZA cat. N° DE17-602E) • 50 mL of Fetal Bovine Serum (Euroclone cat. N° ECS 0180L) • 0.25 mL of 10 mg/mL Puromycin (InvivoGen cat.: ant-pr-1) • 0.5 mL of 100 mg/mL Zeocin (InvivoGen cat.: ant-zn-1)
Cryo-preserved CHO-Gal4/GR cells were suspended in complete medium and 5000 cells/25 μl/well were seeded into the wells of 384-well polystyrene assay plates (Thermo Scientific, cat. #4332) and cultured at 37° C., 5% CO2 and 95% humidity. After 24 hours growth medium was carefully removed and replaced by 30 μl Opti-MEM (GIBCO, cat. #31985062) as assay buffer. To test the compounds an 8-point half-log compound dilution curve was generated in 100% DMSO starting from a 2 mM stock and compounds were then diluted 1:50 in Opti-MEM. 10 μl of compounds were then added to the wells containing 30 μl Opti-MEM resulting in a final assay concentration range from 10 μM to 0.003 μM in 0.5% DMSO. Compounds were tested at 8 concentrations in quadruplicate data points.

Structure (SMILES)	IC50 or EC50 (agonist or antagonist mode not specified)
COCCn1c(C(F)(F)F)cc2c(-c3c(OC(F)F)cc4c(c3F)-n3c(C)nnc3C(C)(C)N4)cccc21 [Example 259, 7-(Difluoro-methoxy)-9-fluoro-8-[1-(2-methoxy-ethyl)-2-(trifluoromethyl)-1H-indol-4-yl]-1,4,4-trimethyl-5H-[1,2,4]triazolo[4,3-a]quinoxaline]	1000 to 15000 nM
Cc1c[nH]c2c(-c3ccc4c(c3C(F)(F)F)-n3c(C)nnc3C(C)(C)N4)cccc12 [Example 503, 1,4,4-Trimethyl-8-(3-methyl-1H-indol-7-yl)-9-(trifluoromethyl)-5H-[1,2,4]triazolo[4,3-a]quinoxaline]	100 to 1000 nM
Cc1c(-c2cccc3cc[nH]c23)c(F)cc2c1-n1c(C)nnc1C(C)(C)N2 [Example 25, 7-fluoro-8-(1H-indol-7-yl)-1,4,4,9-tetramethyl-4,5-dihydro-[1,2,4]triazolo[4,3-a]quinoxaline]	100 to 1000 nM
CCn1cc2c(-c3c(F)cc4c(c3F)-n3c(C)nnc3C(C)(C)N4)cccc2n1 [Example 237, 8-(2-Ethyl-2H-indazol-4-yl)-7,9-difluoro-1,4,4-trimethyl-5H-[1,2,4]triazolo[4,3-a]quinoxaline]	1000 to 15000 nM
Cc1nnc2n1-c1c(cc(F)c(-c3cccc4c3cnn4C)c1F)NC2(C)C [Example 221, 7,9-Difluoro-1,4,4-trimethyl-8-(1-methyl-1H-indazol-4-yl)-5H-[1,2,4]triazolo[4,3-a]quinoxaline]	100 to 1000 nM
Cc1nnc2n1-c1c(cc(OC(F)F)c(-c3cc(F)cc4c3ccn4S(C)(=O)=O)c1F)NC2(C)C [Example 268, 7-(Difluoro-methoxy)-9-fluoro-8-(6-fluoro-1-methylsulfonyl-1H-indol-4-yl)-1,4,4-trimethyl-5H-[1,2,4]triazolo[4,3-a]quinoxaline]	1000 to 15000 nM
Cc1n[nH]c2c(-c3c(F)cc4c(c3C(F)F)-n3c(C)nnc3C(C)(C)N4)cccc12 [Example 367, 9-(Difluoro-methyl)-7-fluoro-1,4,4-trimethyl-8-(3-methyl-1H-indazol-7-yl)-5H-[1,2,4]triazolo[4,3-a]quinoxaline]	100 to 1000 nM
CCc1c[nH]c2c(-c3c(F)cc4c(c3F)-n3c(C)nnc3C(C)(C)N4)cc(F)cc12 [Example 43, 8-(3-ethyl-5-fluoro-1H-indol-7-yl)-7,9-difluoro-1,4,4-trimethyl-4,5-dihydro-[1,2,4]triazolo[4,3-a]quinoxaline]	< 100 nM
Cc1c(-c2cc(F)cc3c2ccn3CCO)c(OC(F)(F)F)cc2c1-n1c(C)nnc1C(C)(C)N2 [Example 471, 2-[6-Fluoro-4-[1,4,4,9-tetramethyl-7-(trifluoromethyloxy)-5H-[1,2,4]triazolo[4,3-a]quinoxalin-8-yl]-1H-indol-1-yl]-ethanol]	100 to 1000 nM
Cc1nnc2n1-c1c(cc(F)c(-c3ccc(C#N)c4[nH]ccc34)c1C(F)(F)F)NC2(C)C [Example 531, 4-[7-Fluoro-1,4,4-trimethyl-9-(trifluoromethyl)-5H-[1,2,4]triazolo[4,3-a]quinoxalin-8-yl]-1H-indole-7-carbonitrile]	100 to 1000 nM
Cc1c[nH]c2c(-c3ccc4c(c3C(F)(F)F)-n3c(C)nnc3C(C)(C)N4)cc(F)cc12 [Example 507, 8-(5-Fluoro-3-methyl-1H-indol-7-yl)-1,4,4-trimethyl-9-(trifluoro-methyl)-5H-[1,2,4]triazolo[4,3-a] quinoxaline]	< 100 nM
Cc1c(-c2cccc3c(C#CC(C)(C)O)c[nH]c23)c(F)cc2c1-n1c(C)nnc1C(C)(C)N2 [Example 39]	100 to 1000 nM
Cc1cc2c(c(F)c1-c1cc(F)cc3c1ccn3C)-n1c(C)nnc1C(C)(C)N2 [Example 520, 9-Fluoro-8-(6-fluoro-1-methyl-1H-indol-4-yl)-1,4,4,7-tetramethyl-5H-[1,2,4]triazolo[4,3-a]quinoxaline]	100 to 1000 nM
Cc1nnc2n1-c1c(cc(F)c(-c3ccc(F)c4[nH]ccc34)c1C(F)(F)F)NC2(C)C [Example 505, 7-Fluoro-8-(7-fluoro-1H-indol-4-yl)-1,4,4-trimethyl-9-(trifluoromethyl)-5H-[1,2,4]triazolo[4,3-a]quinoxaline]	100 to 1000 nM
Cc1c(-c2cc(F)cc3c2cnn3CC(F)F)c(OC(F)(F)F)cc2c1-n1c(C)nnc1C(C)(C)N2 [Example 469, 8-[1-(2,2-Difluoro-ethyl)-6-fluoro-1H-indazol-4-yl]-1,4,4,9-tetramethyl-7-(trifluoromethyloxy)-5H-[1,2,4]triazolo[4,3-a]quinoxaline]	100 to 1000 nM
COc1c(-c2cccc3c(C)c[nH]c23)c(F)cc2c1-n1c(C)nnc1C(C)(C)N2 [Example 270, 7-Fluoro-9-methoxy-1,4,4-trimethyl-8-(3-methyl-1H-indol-7-yl)-5H-[1,2,4]triazolo[4,3-a]quinoxaline]	100 to 1000 nM
COc1c(-c2cccc3c2cnn3C)c(F)cc2c1-n1c(C)nnc1C(C)(C)N2 [Example 264, 7-Fluoro-9-methoxy-1,4,4-trimethyl-8-(1-methyl-1H-indazol-4-yl)-5H-[1,2,4]triazolo[4,3-a]quinoxaline]	100 to 1000 nM
Cc1nnc2n1-c1c(cc(F)c(-c3cccc4c3cnn4CC3CC3)c1F)NC2(C)C [Example 235, 8-[1-(Cyclopropyl-methyl)-1H-indazol-4-yl]-7,9-difluoro-1,4,4-trimethyl-5H-[1,2,4]triazolo[4,3-a]quinoxaline]	< 100 nM
Cc1nnc2n1-c1c(cc(F)c(-c3cccc4c3cnn4S(=O)(=O)CC3CC3)c1F)NC2(C)C [Example 239, 8-[1-(Cyclopropyl-methylsulfonyl)-1H-indazol-4-yl]-7,9-difluoro-1,4,4-trimethyl-5H-[1,2,4]triazolo[4,3-a]quinoxaline]	100 to 1000 nM
COc1cc2c(c(C(F)(F)F)c1-c1cc(F)cc3c(C)c[nH]c13)-n1c(C)nnc1C(C)(C)N2 [Example 407, 8-(5-Fluoro-3-methyl-1H-indol-7-yl)-7-methoxy-1,4,4-trimethyl-9-(trifluoromethyl)-5H-[1,2,4]triazolo[4,3-a]quinoxaline]	< 100 nM
Cc1nnc2n1-c1c(cc(F)c(-c3cccc4c3ccn4S(=O)(=O)C3CC3)c1F)NC2(C)C [Example 205, 8-[1-(Cyclopropylsulfonyl)-1H-indol-4-yl]-7,9-difluoro-1,4,4-trimethyl-5H-[1,2,4]triazolo[4,3-a]quinoxaline]	100 to 1000 nM
Cc1nnc2n1-c1c(cc(F)c(-c3c(F)ccc4[nH]ccc34)c1F)NC2(C)C [Example 214, 7,9-Difluoro-8-(5-fluoro-1H-indol-4-yl)-1,4,4-trimethyl-5H-[1,2,4]triazolo[4,3-a]quinoxaline]	< 100 nM
